Where two headings read alike, the source gives them in different places.
Experiments:
[1] = molecular target: SARS-CoV-1 3CLpro (Severe acute respiratory syndrome coronavirus (SARS-CoV), UniProt P0C6X7); type: biochemical
[2] = molecular target: SARS-CoV-2 3CLpro (Severe acute respiratory syndrome coronavirus 2 (2019-nCoV) (SARS-CoV-2), UniProt P0DTD1); experiment: biochemical; type: biochemical; details: read-out: SARS-CoV-2 IC50
[3] = system: SARS-CoV-2; experiment: microbe, parasite or virus in culture; type: cell-based; details: read-out: CPE Inhibition Assay EC50
[4] = system: SARS-CoV-2; experiment: microbe, parasite or virus in culture; type: cell-based
[5] = Severe acute respiratory syndrome coronavirus 2, Vero C1008, 68 h
[6] = Severe acute respiratory syndrome coronavirus 2, Vero C1008, read-out: Plaque Reduction Assay EC50

| SMILES | IC50 [1] | IC50 [2] | EC50 [3, 5] | EC50 ([4]; Severe acute respiratory syndrome coronavirus 2, Vero C1008, Vero E6 ACE2 cells, approximately 50 PFUs SARS-CoV-2, read-out: Plaque Reduction Assay EC50) | EC50 [4, 6] | EC50 ([3]; Severe acute respiratory syndrome coronavirus 2, Vero C1008, Vero E6 ACE2 cells, 100 TCID50 SARS-CoV-2, 68 h after infection) |
| --- | --- | --- | --- | --- | --- | --- |
| O=C(Cn1nnc2ccccc21)N(CC1CCOC1)c1ccc(-c2cccnc2)cc1 (centres unmarked) [Compound 26, 2-(1H-Benzo[d][1,2,3]triazol-1-yl)-N-(4-(pyridin-3-yl)phenyl)-N-((tetrahydrofuran-3-yl)methyl)acetamide] | 20500 ± 1590 nM | 23000 ± 1380 nM |  |  |  |  |
| O=C(Cn1nnc2ccccc21)N(Cc1ccc(Cl)c(Cl)c1)c1ccc(-c2cccnc2)cc1 [Compound 30, 2-(Benzotriazol-1-yl)-N-[(3,4-dichlorophenyl)methyl]-N-[4-(3-pyridyl)phenyl]acetamide] | > 200000 nM | > 200000 nM |  |  |  |  |
| O=C(Cn1nnc2ccccc21)N(Cc1cc(F)cc(Cl)c1)c1ccc(-c2cccnc2)cc1 [Compound 31, 2-(Benzotriazol-1-yl)-N-[(3-chloro-5-fluoro-phenyl)methyl]-N-[4-(3-pyridyl)phenyl]acetamide] | 74 ± 10 nM | 119 ± 5 nM |  |  |  |  |
| O=C(Cn1nnc2ccccc21)N(Cc1cccc(Cl)c1)c1ccc(-c2ccc[nH]c2=O)cc1 [Compound 35, 2-(1H-Benzo[d][1,2,3]triazol-1-yl)-N-(3-chlorobenzyl)-N-(4-(2-oxo-1,2-dihydropyridin-3-yl)phenyl)acetamide] |  | 746 ± 98 nM | 8770 ± 1140 nM | 16700 ± 2440 nM |  |  |
| O=C(Cn1nnc2ccccc21)N(Cc1cccc(Cl)c1)c1ccc(-c2cn[nH]c2)cc1 [Compound 36, N-(4-(1H-Pyrazol-4-yl)phenyl)-2-(1H-benzo[d][1,2,3]triazol-1-yl)-N-(3-chlorobenzyl)acetamide] |  | 270 ± 67 nM | 1980 ± 240 nM |  | 3310 ± 100 nM |  |
| COc1cc(N(Cc2cccc(Cl)c2)C(=O)Cn2nnc3ccccc32)ccc1-c1cn[nH]c1 [Compound 37, 2-(Benzotriazol-1-yl)-N-[(3-chlorophenyl)methyl]-N-[3-methoxy-4-(1H-pyrazol-4-yl)phenyl]acetamide] |  | 328 ± 27 nM | 2930 ± 280 nM |  | 3240 ± 270 nM |  |
| COc1cc(-c2cn[nH]c2)ccc1N(Cc1cccc(Cl)c1)C(=O)Cn1nnc2ccccc21 [Compound 38, 2-(Benzotriazol-1-yl)-N-[(3-chlorophenyl)methyl]-N-[2-methoxy-4-(1H-pyrazol-4-yl)phenyl]acetamide] |  | 197 ± 50 nM |  |  | 2010 ± 490 nM | 2300 ± 330 nM |
| O=C(Cn1nnc2ccccc21)N(Cc1cccc(Cl)c1)c1ccc(-c2cn[nH]c2)nc1 [Compound 39, 2-(Benzotriazol-1-yl)-N-[(3-chlorophenyl)methyl]-N-[6-(1H-pyrazol-4-yl)-3-pyridyl]acetamide] | 336 ± 65 nM | 333 ± 93 nM | 3810 ± 180 nM |  | 4650 ± 110 nM |  |
| O=C(Cn1nnc2ccccc21)N(Cc1cccc(Cl)c1)c1ccc(-c2cn[nH]c2)cn1 [Compound 40, 2-(Benzotriazol-1-yl)-N-[(3-chlorophenyl)methyl]-N-[5-(1H-pyrazol-4-yl)-2-pyridyl]acetamide] | 214 ± 63 nM | 171 ± 29 nM | 1910 ± 300 nM |  | 3390 ± 210 nM |  |
| O=C(Nc1ccc(N(Cc2ccsc2)C(=O)Cn2nnc3ccccc32)cc1)C1CC1 [ML300, N-(4-(2-(1H-benzo[d][1,2,3]triazol-1-yl)-N-(thiophen-3-ylmethyl)acetamido)phenyl)cyclopropanecarboxamide, reference compound] |  | 4990 ± 620 nM | 19900 ± 6320 nM |  | 28200 ± 1300 nM |  |

— US20240239772A1, “PROTEASE INHIBITORS AND METHODS OF USE” (The Cleveland Clinic Foundation, priority 2021, published 2024)
